Results from patent publication US20190016689A1, “NOVEL FLUORINATED QUINAZOLINE DERIVATIVES AS EGFR INHIBITORS” (TRILLIUM THERAPEUTICS INC., priority 2016, published 2019).

Key:
CCRF-CEM = assay: NCI screening panel (SRB); assay type: cell-based; settings: Homo sapiens, CCRF-CEM (Leukemia), 48 h; for CC50: read-out: LC50 (the source's name)
HOP-62 = assay: NCI screening panel (SRB); assay type: cell-based; settings: Homo sapiens, HOP-62 (NSCLC), 48 h; for CC50: read-out: LC50 (the source's name)
NCI-H522 = assay: NCI screening panel (SRB); assay type: cell-based; settings: Homo sapiens, NCI-H522 (NSCLC), 48 h; for CC50: read-out: LC50 (the source's name)
SF-539 = assay: NCI screening panel (SRB); assay type: cell-based; settings: Homo sapiens, SF-539 (CNS), 48 h; for CC50: read-out: LC50 (the source's name)
SNB-19 = assay: NCI screening panel (SRB); assay type: cell-based; settings: Homo sapiens, SNB-19 (CNS), 48 h; for CC50: read-out: LC50 (the source's name)
MDA-MB-435 = assay: NCI screening panel (SRB); assay type: cell-based; settings: Homo sapiens, MDA-MB-435 (Melanoma), 48 h; for CC50: read-out: LC50 (the source's name)
SK-MEL-28 = assay: NCI screening panel (SRB); assay type: cell-based; settings: Homo sapiens, SK-MEL-28 (Melanoma), 48 h; for CC50: read-out: LC50 (the source's name)
SK-MEL-5 = assay: NCI screening panel (SRB); assay type: cell-based; settings: Homo sapiens, SK-MEL-5 (Melanoma), 48 h; for CC50: read-out: LC50 (the source's name)
UACC-257 = assay: NCI screening panel (SRB); assay type: cell-based; settings: Homo sapiens, UACC-257 (Melanoma), 48 h; for CC50: read-out: LC50 (the source's name)
IGROV1 = assay: NCI screening panel (SRB); assay type: cell-based; settings: Homo sapiens, IGROV-1, IGROV1 (Ovarian), 48 h; for CC50: read-out: LC50 (the source's name)
OVCAR-4 = assay: NCI screening panel (SRB); assay type: cell-based; settings: Homo sapiens, OVCAR-4 (Ovarian), 48 h; for CC50: read-out: LC50 (the source's name)
OVCAR-8 = assay: NCI screening panel (SRB); assay type: cell-based; settings: Homo sapiens, OVCAR-8 (Ovarian), 48 h; for CC50: read-out: LC50 (the source's name)
786-0 = assay: NCI screening panel (SRB); assay type: cell-based; settings: Homo sapiens, 786-0 (Renal), 48 h; for CC50: read-out: LC50 (the source's name)
CAKI-1 = assay: NCI screening panel (SRB); assay type: cell-based; settings: Homo sapiens, CAKI-1 (Renal), 48 h; for CC50: read-out: LC50 (the source's name)
RXF393 = assay: NCI screening panel (SRB); assay type: cell-based; settings: Homo sapiens, RXF 393, RXF393 (Renal), 48 h; for CC50: read-out: LC50 (the source's name)
TK-10 = assay: NCI screening panel (SRB); assay type: cell-based; settings: Homo sapiens, TK-10 (Renal), 48 h; for CC50: read-out: LC50 (the source's name)
MCF7 = assay: NCI screening panel (SRB); assay type: cell-based; settings: Homo sapiens, MCF7 (Breast), 48 h; for CC50: read-out: LC50 (the source's name)
MDA-MB-231/ATCC = assay: NCI screening panel (SRB); assay type: cell-based; settings: Homo sapiens, MDA-MB-231/ATCC (Breast), 48 h; for CC50: read-out: LC50 (the source's name)
NCI-H322M = assay: cells; settings: Homo sapiens, 48 h; for CC50: read-out: LC50
MDA-MB-468 = assay: NCI screening panel (SRB); settings: Homo sapiens, MDA-MB-468, 48 h; for CC50: read-out: LC50
EGFR = EGFR (Homo sapiens, UniProt P00533); assay: Kinase assays, selectivity panel (qPCR); settings: read-out: % Control @ 300 nM
EGFR (E746-A750del) = EGFR (E746-A750del) (Homo sapiens, UniProt P00533, DEL746-750); assay: Kinase assays, selectivity panel (qPCR); settings: read-out: % Control @ 300 nM
Sequence of EGFR (E746-A750del) (P00533 with tags, fused parts or gaps DEL746-750): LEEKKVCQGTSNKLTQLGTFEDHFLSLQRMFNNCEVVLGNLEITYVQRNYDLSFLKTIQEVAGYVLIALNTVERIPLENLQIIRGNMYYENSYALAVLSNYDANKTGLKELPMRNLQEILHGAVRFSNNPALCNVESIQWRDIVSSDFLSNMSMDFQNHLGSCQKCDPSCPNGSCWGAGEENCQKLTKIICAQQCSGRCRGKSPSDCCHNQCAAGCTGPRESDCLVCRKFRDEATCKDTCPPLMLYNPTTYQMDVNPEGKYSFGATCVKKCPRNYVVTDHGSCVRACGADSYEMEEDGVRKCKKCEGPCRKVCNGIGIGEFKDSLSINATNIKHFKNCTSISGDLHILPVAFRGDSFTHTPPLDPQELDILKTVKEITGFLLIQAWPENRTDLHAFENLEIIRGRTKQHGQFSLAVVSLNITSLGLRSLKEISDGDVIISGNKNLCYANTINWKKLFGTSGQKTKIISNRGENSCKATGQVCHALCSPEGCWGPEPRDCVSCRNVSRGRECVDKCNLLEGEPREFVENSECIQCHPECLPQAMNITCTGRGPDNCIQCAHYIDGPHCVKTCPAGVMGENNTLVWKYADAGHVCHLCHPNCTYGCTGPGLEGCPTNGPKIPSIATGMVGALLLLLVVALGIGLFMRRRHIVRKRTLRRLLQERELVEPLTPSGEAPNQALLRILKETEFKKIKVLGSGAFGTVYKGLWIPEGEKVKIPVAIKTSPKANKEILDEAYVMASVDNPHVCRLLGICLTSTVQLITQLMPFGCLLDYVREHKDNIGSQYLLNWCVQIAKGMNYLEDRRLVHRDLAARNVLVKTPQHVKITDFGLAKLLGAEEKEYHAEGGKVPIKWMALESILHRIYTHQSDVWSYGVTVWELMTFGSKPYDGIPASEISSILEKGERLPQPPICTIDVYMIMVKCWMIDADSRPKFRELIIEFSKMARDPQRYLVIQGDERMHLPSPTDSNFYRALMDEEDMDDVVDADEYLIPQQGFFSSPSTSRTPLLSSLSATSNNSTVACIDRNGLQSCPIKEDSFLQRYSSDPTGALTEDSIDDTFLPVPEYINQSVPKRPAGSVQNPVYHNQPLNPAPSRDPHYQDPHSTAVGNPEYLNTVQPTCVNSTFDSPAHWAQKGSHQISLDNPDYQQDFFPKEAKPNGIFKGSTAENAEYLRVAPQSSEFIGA

EGFR (G719C) = EGFR (G719C) (Homo sapiens, UniProt P00533, G719C); assay: Kinase assays, selectivity panel (qPCR); settings: read-out: % Control @ 300 nM
Sequence of EGFR (G719C) (P00533 25-1210 G719C): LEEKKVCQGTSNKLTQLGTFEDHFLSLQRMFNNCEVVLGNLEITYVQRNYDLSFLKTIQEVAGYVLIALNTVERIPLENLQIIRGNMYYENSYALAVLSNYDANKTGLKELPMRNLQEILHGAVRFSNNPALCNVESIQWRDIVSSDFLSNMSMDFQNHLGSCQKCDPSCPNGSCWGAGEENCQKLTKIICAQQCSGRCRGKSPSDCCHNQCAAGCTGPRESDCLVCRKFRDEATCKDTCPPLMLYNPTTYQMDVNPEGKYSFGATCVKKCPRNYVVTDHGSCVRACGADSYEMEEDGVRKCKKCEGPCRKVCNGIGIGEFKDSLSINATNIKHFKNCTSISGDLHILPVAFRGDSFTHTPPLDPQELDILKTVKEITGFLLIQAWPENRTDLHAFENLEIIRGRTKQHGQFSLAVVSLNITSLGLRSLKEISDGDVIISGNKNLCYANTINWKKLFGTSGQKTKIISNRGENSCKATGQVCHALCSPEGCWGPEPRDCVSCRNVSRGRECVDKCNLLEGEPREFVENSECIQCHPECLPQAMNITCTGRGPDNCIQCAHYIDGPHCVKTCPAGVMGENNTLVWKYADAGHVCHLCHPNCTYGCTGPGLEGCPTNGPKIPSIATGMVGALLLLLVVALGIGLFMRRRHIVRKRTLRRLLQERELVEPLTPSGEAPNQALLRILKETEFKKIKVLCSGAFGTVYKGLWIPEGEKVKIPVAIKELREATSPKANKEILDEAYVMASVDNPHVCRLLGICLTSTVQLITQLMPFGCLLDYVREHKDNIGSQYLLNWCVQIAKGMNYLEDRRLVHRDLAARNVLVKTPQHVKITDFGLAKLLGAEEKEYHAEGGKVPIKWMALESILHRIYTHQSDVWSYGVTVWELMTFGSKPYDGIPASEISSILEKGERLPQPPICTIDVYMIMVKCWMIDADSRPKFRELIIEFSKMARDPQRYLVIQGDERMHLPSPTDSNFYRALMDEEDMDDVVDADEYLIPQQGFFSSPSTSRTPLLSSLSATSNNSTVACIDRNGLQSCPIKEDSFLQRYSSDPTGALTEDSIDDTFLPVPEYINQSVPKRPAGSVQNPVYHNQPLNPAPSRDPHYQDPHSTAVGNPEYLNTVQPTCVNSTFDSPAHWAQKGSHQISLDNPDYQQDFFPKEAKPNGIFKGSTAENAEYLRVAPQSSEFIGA

[1] = molecular target: EGFR (L747-S752del, P753S) (Homo sapiens, UniProt P00533, DEL747-752/P753S); assay: Kinase assays, selectivity panel (qPCR); settings: read-out: % Control @ 300 nM
Sequence of EGFR (L747-S752del, P753S) (P00533 with tags, fused parts or gaps DEL747-752/P753S): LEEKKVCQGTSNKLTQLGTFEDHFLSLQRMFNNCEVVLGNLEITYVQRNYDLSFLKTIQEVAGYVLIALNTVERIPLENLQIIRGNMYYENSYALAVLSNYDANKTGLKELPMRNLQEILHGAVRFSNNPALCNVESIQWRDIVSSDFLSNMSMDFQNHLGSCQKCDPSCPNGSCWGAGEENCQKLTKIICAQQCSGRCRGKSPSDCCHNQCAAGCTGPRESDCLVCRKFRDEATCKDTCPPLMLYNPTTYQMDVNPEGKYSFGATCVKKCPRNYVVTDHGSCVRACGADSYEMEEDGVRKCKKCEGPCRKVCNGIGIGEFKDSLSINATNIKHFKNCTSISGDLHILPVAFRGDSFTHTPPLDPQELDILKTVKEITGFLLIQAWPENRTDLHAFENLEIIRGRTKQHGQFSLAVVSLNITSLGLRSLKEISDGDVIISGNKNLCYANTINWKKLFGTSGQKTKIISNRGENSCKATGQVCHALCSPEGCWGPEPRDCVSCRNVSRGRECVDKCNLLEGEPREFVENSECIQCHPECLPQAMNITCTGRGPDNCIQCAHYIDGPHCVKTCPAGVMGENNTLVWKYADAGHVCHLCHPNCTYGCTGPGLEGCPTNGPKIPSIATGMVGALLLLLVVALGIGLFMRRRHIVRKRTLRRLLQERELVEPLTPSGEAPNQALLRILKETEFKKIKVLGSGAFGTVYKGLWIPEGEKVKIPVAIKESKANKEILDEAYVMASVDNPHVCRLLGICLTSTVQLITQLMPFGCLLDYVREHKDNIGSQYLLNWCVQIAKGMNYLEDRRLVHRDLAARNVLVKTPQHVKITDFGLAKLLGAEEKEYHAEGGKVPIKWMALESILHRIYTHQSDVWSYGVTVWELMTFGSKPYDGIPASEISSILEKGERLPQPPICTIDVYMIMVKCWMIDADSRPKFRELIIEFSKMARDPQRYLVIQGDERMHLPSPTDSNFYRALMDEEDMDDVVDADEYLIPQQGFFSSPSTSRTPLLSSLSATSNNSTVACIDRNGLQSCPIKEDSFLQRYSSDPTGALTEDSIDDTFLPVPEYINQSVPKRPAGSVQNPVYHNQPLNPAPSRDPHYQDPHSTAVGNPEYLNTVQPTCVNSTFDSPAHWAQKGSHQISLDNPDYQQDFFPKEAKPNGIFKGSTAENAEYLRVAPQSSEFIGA

ERBB4 = ERBB4 (Homo sapiens, UniProt Q15303); assay: Kinase assays, selectivity panel (qPCR); settings: read-out: % Control @ 300 nM
LCK (Lymphocyte TK) = LCK (Lymphocyte TK) (Homo sapiens, UniProt P06239); assay: Kinase assays, selectivity panel (qPCR); settings: read-out: % Control @ 300 nM
Sequence of LCK (Lymphocyte TK) (P06239 whole entry): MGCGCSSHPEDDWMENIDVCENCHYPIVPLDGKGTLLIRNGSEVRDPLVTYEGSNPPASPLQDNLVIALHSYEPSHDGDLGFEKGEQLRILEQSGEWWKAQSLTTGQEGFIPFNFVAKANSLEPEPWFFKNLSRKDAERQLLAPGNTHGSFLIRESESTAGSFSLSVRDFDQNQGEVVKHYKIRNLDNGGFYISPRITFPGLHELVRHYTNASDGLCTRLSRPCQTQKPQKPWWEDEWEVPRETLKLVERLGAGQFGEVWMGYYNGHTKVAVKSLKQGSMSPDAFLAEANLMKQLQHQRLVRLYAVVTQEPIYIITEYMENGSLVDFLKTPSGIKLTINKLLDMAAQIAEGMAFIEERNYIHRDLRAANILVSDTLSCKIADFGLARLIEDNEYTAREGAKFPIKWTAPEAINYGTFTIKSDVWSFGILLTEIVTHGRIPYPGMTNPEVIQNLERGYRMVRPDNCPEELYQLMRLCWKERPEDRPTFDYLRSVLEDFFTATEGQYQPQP

## CN(C)C/C=C/C(=O)Nc1cc2c(Nc3ccc(F)c(Cl)c3F)ncnc2cc1OCCOC(F)F.O=C(O)/C=C\C(=O)O.O=C(O)/C=C\C(=O)O [Example I-9-MA, (E)-N-[4-(3-chloro-2,4-difluoro-anilino)-7-[2-(difluoromethoxy)ethoxy]quinazolin-6-yl]-4-(dimethylamino)but-2-enamide di-maleic acid salt]
CCRF-CEM
  GI50: 2.47 µM
  CC50: > 100 µM
HOP-62
  GI50: 1.35 µM
  CC50: 41.5 µM
NCI-H522
  GI50: < 0.01 µM
  CC50: 9.17 µM
SF-539
  GI50: 1.06 µM
  CC50: 9.52 µM
SNB-19
  GI50: 1.6 µM
  CC50: 36.6 µM
MDA-MB-435
  GI50: 1.17 µM
  CC50: 27.2 µM
SK-MEL-28
  GI50: 2.29 µM
  CC50: 36.2 µM
SK-MEL-5
  GI50: 1.65 µM
  CC50: 7.39 µM
UACC-257
  GI50: 2.18 µM
  CC50: 34 µM
IGROV1
  GI50: < 0.01 µM
  CC50: 32.5 µM
OVCAR-4
  GI50: 0.999 µM
  CC50: 32.4 µM
OVCAR-8
  GI50: 1.09 µM
  CC50: 32.7 µM
786-0
  GI50: 0.248 µM
  CC50: 26.6 µM
CAKI-1
  GI50: < 0.01 µM
  CC50: 3.76 µM
RXF393
  GI50: 0.351 µM
  CC50: 15.1 µM
TK-10
  GI50: < 0.01 µM
  CC50: 21.8 µM
MCF7
  GI50: 1.4 µM
  CC50: 57.8 µM
MDA-MB-231/ATCC
  GI50: 0.391 µM
  CC50: 28.8 µM
NCI-H322M
  GI50: < 0.01 µM
  CC50: 28.2 µM
MDA-MB-468
  GI50: < 0.01 µM
  CC50: 0.701 µM
EGFR
  remaining activity at 0.3 µM: 0.7%
EGFR (E746-A750del)
  remaining activity at 0.3 µM: 3.6%
EGFR (G719C)
  remaining activity at 0.3 µM: 1.1%
[1]
  remaining activity at 0.3 µM: 2.8%
ERBB4
  remaining activity at 0.3 µM: 1.8%
LCK (Lymphocyte TK)
  remaining activity at 0.3 µM: 1.3%

## O=C(/C=C/CN1CCCCC1)Nc1cc2c(Nc3ccc(F)c(Cl)c3F)ncnc2cc1OCCOC(F)F.O=C(O)/C=C\C(=O)O.O=C(O)/C=C\C(=O)O [Example I-10-MA, (E)-N-[4-(3-chloro-2,4-difluoro-anilino)-7-[2-(difluoromethoxy)ethoxy]quinazolin-6-yl]-4-(1-piperidyl)but-2-enamide di-maleic acid salt]
CCRF-CEM
  GI50: 2.27 µM
  CC50: > 100 µM
HOP-62
  GI50: 1.62 µM
  CC50: 39.5 µM
NCI-H522
  GI50: 0.0559 µM
  CC50: 7.8 µM
SF-539
  GI50: 1.5 µM
  CC50: 14.3 µM
SNB-19
  GI50: 2.16 µM
  CC50: 68.8 µM
MDA-MB-435
  GI50: 1.8 µM
  CC50: 28.6 µM
SK-MEL-28
  GI50: 2.49 µM
  CC50: 36.5 µM
SK-MEL-5
  GI50: 1.63 µM
  CC50: 6.25 µM
UACC-257
  GI50: 1.74 µM
  CC50: 24.1 µM
IGROV1
  GI50: 0.0331 µM
  CC50: > 100 µM
OVCAR-4
  GI50: 1.31 µM
  CC50: 59.9 µM
OVCAR-8
  GI50: 1.35 µM
  CC50: > 100 µM
786-0
  GI50: 0.929 µM
  CC50: > 100 µM
CAKI-1
  GI50: 0.0229 µM
  CC50: 6.53 µM
RXF393
  GI50: 0.959 µM
  CC50: 33.3 µM
TK-10
  GI50: < 0.01 µM
  CC50: 35.1 µM
MCF7
  GI50: 1.84 µM
  CC50: 59.8 µM
MDA-MB-231/ATCC
  GI50: 1.15 µM
  CC50: 17.6 µM
NCI-H322M
  GI50: < 0.01 µM
  CC50: 30.3 µM
MDA-MB-468
  GI50: < 0.01 µM
  CC50: 6.93 µM
EGFR
  remaining activity at 0.3 µM: 2.7%
EGFR (E746-A750del)
  remaining activity at 0.3 µM: 2.7%
EGFR (G719C)
  remaining activity at 0.3 µM: 0%
[1]
  remaining activity at 0.3 µM: 2.5%
ERBB4
  remaining activity at 0.3 µM: 3.2%
LCK (Lymphocyte TK)
  remaining activity at 0.3 µM: 1.3%
